Laboratory results published in BindingDB's records for doi:10.1074/jbc.M114.556381 (Central South University, 2014).

Target: Prokineticin receptor 2 (Homo sapiens, UniProt Q8NFJ6)
Test: Calcium Mobilization Assay
Details: pH 7.5; 37 °C
Method: Briefly, Chinese hamster ovary cells stably expressing the photoprotein aequorin were transiently transfected with WT or respective mutant PKR2-expressing plasmids. Two days after transfection, the cells were charged in Opti-MEM (Invitrogen) containing 8 μM coelenterazine cp (Invitrogen) at 37 °C for 2 h. Cells were detached by brief trypsinization and maintained in assay buffer (Hanks' balanced salt solution plus 10 mM HEPES, pH 7.5, and 0.1% bovine serum albumin) at approximately 5 × 10^5 cells/ml. Luminescence measurements were made using a Sirius Single Tube Luminometer (Berthold Detection Systems GmbH, Pforzheim, Germany). PK2 was serially diluted in assay buffer and mixed with cells. The luminescence was monitored for 35 s (peak 1), then 100 μl of 1% Triton X-100 was injected to lyse the cells, and the luminescence was monitored continuously for another 20 s (peak 2). The area under the curve of the peak 1 was divided by the total area under the curve of peaks 1 and 2, and the maximal responses from WT receptors were normalized to 100.

Prokineticin receptor 2, sequence (Q8NFJ6 whole entry): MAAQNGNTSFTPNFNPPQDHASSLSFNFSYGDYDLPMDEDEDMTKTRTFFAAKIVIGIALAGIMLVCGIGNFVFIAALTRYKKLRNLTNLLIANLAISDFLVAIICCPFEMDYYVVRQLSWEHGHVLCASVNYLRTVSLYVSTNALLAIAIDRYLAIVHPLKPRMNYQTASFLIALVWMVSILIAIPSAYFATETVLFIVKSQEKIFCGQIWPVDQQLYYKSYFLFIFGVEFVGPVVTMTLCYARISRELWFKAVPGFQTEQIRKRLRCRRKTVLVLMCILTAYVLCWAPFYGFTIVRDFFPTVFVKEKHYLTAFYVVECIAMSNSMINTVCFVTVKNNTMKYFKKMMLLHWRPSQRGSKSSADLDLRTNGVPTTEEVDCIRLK

CC(C)CN(Cc1cc(Cl)c2c(c1)OCCCO2)C(=O)C1CCN(Cc2ccccc2)C1 (racemic) [US8722896, (+/-)-1-Benzyl-N-(9-chloro-3,4-dihydro-2H-1,5-benzodioxepin-7-ylmethyl)-N-isobutylpyrrolidine-3-carboxamide]
IC50: 102 nM
